# In patent publication US20240208992A1, “MACROCYCLES AS CFTR MODULATORS” (Idorsia Pharmaceuticals Ltd, priority 2021, published 2024):
# Target: human F508del-CFTR (Homo sapiens, UniProt P13569, DEL508-508)
# Test: F508del-CFTR cell surface expression (corrector activity), DiscoveRx ß-galactosidase complementation chemiluminescence assay in recombinant U2OS cell line;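 note: U2OS cells co-expressing ProLink-tagged F508del-CFTR and a membrane-anchored enzyme acceptor, where more surface CFTR restores β-galactosidase activity measured by chemiluminescence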
# Details: U2OS cells, 16h compound incubation; for EC50: EC50, F508del-CFTR cell surface expression, geomean of several measurements; for Emax: U2OS, in relation to the Emax of the corrector lumacaftor (=100%), arithmetic mean
# Chain of human F508del-CFTR (P13569 with tags, fused parts or gaps DEL508-508): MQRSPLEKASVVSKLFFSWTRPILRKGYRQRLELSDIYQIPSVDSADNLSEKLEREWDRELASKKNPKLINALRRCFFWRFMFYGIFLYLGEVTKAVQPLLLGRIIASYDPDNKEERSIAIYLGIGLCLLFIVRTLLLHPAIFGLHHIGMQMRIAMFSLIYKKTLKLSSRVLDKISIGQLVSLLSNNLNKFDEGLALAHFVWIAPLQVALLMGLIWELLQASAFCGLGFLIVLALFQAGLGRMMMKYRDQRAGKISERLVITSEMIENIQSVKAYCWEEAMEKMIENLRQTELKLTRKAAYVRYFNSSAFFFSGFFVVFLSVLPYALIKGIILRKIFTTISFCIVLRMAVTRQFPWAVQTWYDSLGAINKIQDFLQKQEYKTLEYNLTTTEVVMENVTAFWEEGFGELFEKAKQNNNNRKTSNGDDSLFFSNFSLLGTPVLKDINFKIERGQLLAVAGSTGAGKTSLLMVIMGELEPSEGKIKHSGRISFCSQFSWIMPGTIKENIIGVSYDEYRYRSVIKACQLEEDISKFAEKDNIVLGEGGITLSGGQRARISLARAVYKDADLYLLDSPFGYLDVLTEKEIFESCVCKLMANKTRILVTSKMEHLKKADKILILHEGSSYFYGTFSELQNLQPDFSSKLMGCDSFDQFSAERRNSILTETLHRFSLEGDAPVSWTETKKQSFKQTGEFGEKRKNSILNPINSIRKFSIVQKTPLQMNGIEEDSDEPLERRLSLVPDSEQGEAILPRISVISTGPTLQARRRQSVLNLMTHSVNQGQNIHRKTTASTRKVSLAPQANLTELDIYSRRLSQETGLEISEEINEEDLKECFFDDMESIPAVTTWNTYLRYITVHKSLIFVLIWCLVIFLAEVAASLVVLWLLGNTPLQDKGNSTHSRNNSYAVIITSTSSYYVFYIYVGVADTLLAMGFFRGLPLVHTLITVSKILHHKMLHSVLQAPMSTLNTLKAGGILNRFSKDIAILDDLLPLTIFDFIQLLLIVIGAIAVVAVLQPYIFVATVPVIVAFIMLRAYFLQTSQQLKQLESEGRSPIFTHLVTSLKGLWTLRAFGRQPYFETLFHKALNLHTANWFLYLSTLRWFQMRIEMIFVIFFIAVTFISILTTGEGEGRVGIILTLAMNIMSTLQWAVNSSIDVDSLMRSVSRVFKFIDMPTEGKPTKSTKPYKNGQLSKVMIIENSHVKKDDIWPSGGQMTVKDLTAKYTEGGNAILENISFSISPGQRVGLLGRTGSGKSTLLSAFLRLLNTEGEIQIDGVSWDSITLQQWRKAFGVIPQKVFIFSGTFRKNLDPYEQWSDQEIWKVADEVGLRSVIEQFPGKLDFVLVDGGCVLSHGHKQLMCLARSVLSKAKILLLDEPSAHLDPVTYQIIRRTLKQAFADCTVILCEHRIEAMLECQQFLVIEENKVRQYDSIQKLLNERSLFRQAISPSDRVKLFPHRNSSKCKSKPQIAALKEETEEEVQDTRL
Structure (SMILES),EC50,Emax
"CC(C)C[C@H]1C(=O)N(C)[C@H](Cc2nc(C(F)(F)F)no2)C(=O)N[C@H](Cc2ccccc2)COc2ccc3ncc(F)cc3c2C(=O)N[C@H](C(=O)NCCn2nnc(C3CC3)n2)CC(=O)N1C [Example 924, (3S,7S,10R,13R)-13-benzyl-N-(2-(5-cyclopropyl-2H-tetrazol-2-yl)ethyl)-20-fluoro-7-isobutyl-6,9-dimethyl-1,5,8,11-tetraoxo-10-((3-(trifluoromethyl)-1,2,4-oxadiazol-5-yl)methyl)-1,2,3,4,5,6,7,8,9,10,11,12,13,14-tetradecahydro-[1]oxa[4,7,10,14]tetraazacycloheptadecino[16,17-f]quinoline-3-carboxamide]",33 nM,409%
"Cc1cc2c(c3cccnc13)C(=O)N[C@H](C(=O)NCCn1nnc(C3CC3)n1)CC(=O)N(C)[C@@H](CC(C)C)C(=O)N1CCCCC1C(=O)N[C@H](Cc1ccccc1)CO2 (stereo partly drawn) [Example 928, (9S,13S,19aS,22R)-22-benzyl-N-(2-(5-cyclopropyl-2H-tetrazol-2-yl)ethyl)-13-isobutyl-2,12-dimethyl-7,11,14,20-tetraoxo-7,8,9,10,11,12,13,14,17,18,19,19a,20,21,22,23-hexadecahydro-16H-pyrido[2′,1′:6,7][1]oxa[4,7,10,14]tetraazacycloheptadecino[16,17-f]quinoline-9-carboxamide]",971 nM,247%
"COc1cc(CCNC(=O)[C@@H]2CC(=O)N(C)[C@@H](CC(C)C)C(=O)N(C)[C@H](CC(F)F)C(=O)N[C@H](Cc3ccccc3)COc3ccc4cnc(C)cc4c3C(=O)N2)on1 [Example 931, (3S,7S,10R,13R)-13-benzyl-10-(2,2-difluoroethyl)-7-isobutyl-N-(2-(3-methoxyisoxazol-5-yl)ethyl)-6,9,20-trimethyl-1,5,8,11-tetraoxo-1,2,3,4,5,6,7,8,9,10,11,12,13,14-tetradecahydro-[1]oxa[4,7,10,14]tetraazacycloheptadecino[16,17-f]isoquinoline-3-carboxamide]",298 nM,507%
"Cc1cc2c3c(ccc2cn1)OC[C@@H](Cc1ccccc1)NC(=O)[C@@H](CC(F)F)N(C)C(=O)[C@H](CC(C)C)N(C)C(=O)C[C@@H](C(=O)NCCn1nnc(C2CC2)n1)NC3=O [Example 933, (3S,7S,10R,13R)-13-benzyl-N-(2-(5-cyclopropyl-2H-tetrazol-2-yl)ethyl)-10-(2,2-difluoroethyl)-7-isobutyl-6,9,20-trimethyl-1,5,8,11-tetraoxo-1,2,3,4,5,6,7,8,9,10,11,12,13,14-tetradecahydro-[1]oxa[4,7,10,14]tetraazacycloheptadecino[16,17-f]isoquinoline-3-carboxamide]",399 nM,485%
"Cc1cc2c(c3cccnc13)C(=O)N[C@H](C(=O)NCCc1noc(C3CC3)n1)CC(=O)N(C)[C@@H](CC(C)C)C(=O)N(C)[C@H](Cc1nc(C(F)(F)F)no1)C(=O)N[C@H](Cc1ccccc1)CO2 [Example 935, (3S,7S,10R,13R)-13-benzyl-N-(2-(5-cyclopropyl-1,2,4-oxadiazol-3-yl)ethyl)-7-isobutyl-6,9,17-trimethyl-1,5,8,11-tetraoxo-10-((3-(trifluoromethyl)-1,2,4-oxadiazol-5-yl)methyl)-1,2,3,4,5,6,7,8,9,10,11,12,13,14-tetradecahydro-[1]oxa[4,7,10,14]tetraazacycloheptadecino[16,17-f]quinoline-3-carboxamide]",24 nM,496%
"Cc1cc2c(c3cccnc13)C(=O)N[C@H](C(=O)NCCc1nc(C3CC3)no1)CC(=O)N(C)[C@@H](CC(C)C)C(=O)N(C)[C@H](Cc1nc(C(F)(F)F)no1)C(=O)N[C@H](Cc1ccccc1)CO2 [Example 936, (3S,7S,10R,13R)-13-benzyl-N-(2-(3-cyclopropyl-1,2,4-oxadiazol-5-yl)ethyl)-7-isobutyl-6,9,17-trimethyl-1,5,8,11-tetraoxo-10-((3-(trifluoromethyl)-1,2,4-oxadiazol-5-yl)methyl)-1,2,3,4,5,6,7,8,9,10,11,12,13,14-tetradecahydro-[1]oxa[4,7,10,14]tetraazacycloheptadecino[16,17-f]quinoline-3-carboxamide]",26 nM,469%
"CC(C)C[C@H]1C(=O)N(C)[C@H](Cc2nc(C(F)(F)F)no2)C(=O)N[C@H](Cc2ccccc2)COc2ccc3ncc(F)cc3c2C(=O)N[C@H](C(=O)NCCn2nc3ccccc3n2)CC(=O)N1C [Example 937, (3S,7S,10R,13R)-N-(2-(2H-benzo[d][1,2,3]triazol-2-yl)ethyl)-13-benzyl-20-fluoro-7-isobutyl-6,9-dimethyl-1,5,8,11-tetraoxo-10-((3-(trifluoromethyl)-1,2,4-oxadiazol-5-yl)methyl)-1,2,3,4,5,6,7,8,9,10,11,12,13,14-tetradecahydro-[1]oxa[4,7,10,14]tetraazacycloheptadecino[16,17-f]quinoline-3-carboxamide]",59 nM,460%

# More lines, now with the values ahead:
EC50,Emax,Structure (SMILES)
92 nM,286%,"CC(C)C[C@H]1C(=O)N(C)[C@H](Cc2nc(C(F)(F)F)no2)C(=O)N[C@H](Cc2ccccc2)COc2ccc3ncc(F)cc3c2C(=O)N[C@H](C(=O)NCCCOC(F)(F)F)CC(=O)N1C [Example 925, (3S,7S,10R,13R)-13-benzyl-20-fluoro-7-isobutyl-6,9-dimethyl-1,5,8,11-tetraoxo-N-(3-(trifluoromethoxy)propyl)-10-((3-(trifluoromethyl)-1,2,4-oxadiazol-5-yl)methyl)-1,2,3,4,5,6,7,8,9,10,11,12,13,14-tetradecahydro-[1]oxa[4,7,10,14]tetraazacycloheptadecino[16,17-f]quinoline-3-carboxamide]"
759 nM,416%,"COc1cc(CCNC(=O)[C@@H]2CC(=O)N(C)[C@@H](CC(C)C)C(=O)N(C)[C@]3(C[C@H](OC)C3)C(=O)N[C@H](Cc3ccccc3)COc3ccc4ncc(F)cc4c3C(=O)N2)on1 [Example 926, (1r,3S,3′S,7′S,13′R)-13′-benzyl-20′-fluoro-7′-isobutyl-3-methoxy-N-(2-(3-methoxyisoxazol-5-yl)ethyl)-6′,9′-dimethyl-1′,5′,8′,11′-tetraoxo-2′,3′,4′,5′,6′,7′,8′,9′,11′,12′,13′,14′-dodecahydro-1′H-spiro[cyclobutane-1,10′-[1]oxa[4,7,10,14]tetraazacycloheptadecino[16,17-f]quinoline]-3′-carboxamide]"
27 nM,492%,"COc1noc(CCNC(=O)[C@@H]2CC(=O)N(C)[C@@H](CC(C)C)C(=O)N(C)[C@H](Cc3nc(C(F)(F)F)no3)C(=O)N[C@H](Cc3ccccc3)COc3cc(C)c4ncccc4c3C(=O)N2)n1 [Example 927, (3S,7S,10R,13R)-13-benzyl-7-isobutyl-N-(2-(3-methoxy-1,2,4-oxadiazol-5-yl)ethyl)-6,9,17-trimethyl-1,5,8,11-tetraoxo-10-((3-(trifluoromethyl)-1,2,4-oxadiazol-5-yl)methyl)-1,2,3,4,5,6,7,8,9,10,11,12,13,14-tetradecahydro-[1]oxa[4,7,10,14]tetraazacycloheptadecino[16,17-f]quinoline-3-carboxamide]"
306 nM,513%,"CCOCC[C@@H]1C(=O)N[C@H](Cc2ccccc2)COc2ccc3ncc(F)cc3c2C(=O)N[C@H](C(=O)NCCc2nc(OC)no2)CC(=O)N(C)[C@@H](CC(C)C)C(=O)N1C [Example 929, (3S,7S,10R,13R)-13-benzyl-10-(2-ethoxyethyl)-20-fluoro-7-isobutyl-N-(2-(3-methoxy-1,2,4-oxadiazol-5-yl)ethyl)-6,9-dimethyl-1,5,8,11-tetraoxo-1,2,3,4,5,6,7,8,9,10,11,12,13,14-tetradecahydro-[1]oxa[4,7,10,14]tetraazacycloheptadecino[16,17-f]quinoline-3-carboxamide]"
142 nM,460%,"COc1noc(CCNC(=O)[C@@H]2CC(=O)N(C)[C@@H](CC(C)C)C(=O)N3CCCC[C@@H]3C(=O)N[C@H](Cc3ccccc3)COc3cnc4ccc(F)cc4c3C(=O)N2)n1 [Example 930, (9S,13S,19aR,22R)-22-benzyl-5-fluoro-13-isobutyl-N-(2-(3-methoxy-1,2,4-oxadiazol-5-yl)ethyl)-12-methyl-7,11,14,20-tetraoxo-7,8,9,10,11,12,13,14,17,18,19,19a,20,21,22,23-hexadecahydro-16H-pyrido[2′,1′:6,7][1]oxa[4,7,10,14]tetraazacycloheptadecino[17,16-c]quinoline-9-carboxamide]"
373 nM,491%,"COc1noc(CCNC(=O)[C@@H]2CC(=O)N(C)[C@@H](CC(C)C)C(=O)N(C)[C@H](CC(F)F)C(=O)N[C@H](Cc3ccccc3)COc3ccc4cnc(C)cc4c3C(=O)N2)n1 [Example 932, (3S,7S,10R,13R)-13-benzyl-10-(2,2-difluoroethyl)-7-isobutyl-N-(2-(3-methoxy-1,2,4-oxadiazol-5-yl)ethyl)-6,9,20-trimethyl-1,5,8,11-tetraoxo-1,2,3,4,5,6,7,8,9,10,11,12,13,14-tetradecahydro-[1]oxa[4,7,10,14]tetraazacycloheptadecino[16,17-f]isoquinoline-3-carboxamide]"
37 nM,528%,"COc1noc(CCNC(=O)[C@@H]2CC(=O)N(C)[C@@H](CC(C)C)C(=O)N(C)[C@H](Cc3nc(C(F)(F)F)no3)C(=O)N[C@H](Cc3ccccc3)COc3ccc4ncc(F)cc4c3C(=O)N2)n1 [Example 934, (3S,7S,10R,13R)-13-benzyl-20-fluoro-7-isobutyl-N-(2-(3-methoxy-1,2,4-oxadiazol-5-yl)ethyl)-6,9-dimethyl-1,5,8,11-tetraoxo-10-((3-(trifluoromethyl)-1,2,4-oxadiazol-5-yl)methyl)-1,2,3,4,5,6,7,8,9,10,11,12,13,14-tetradecahydro-[1]oxa[4,7,10,14]tetraazacycloheptadecino[16,17-f]quinoline-3-carboxamide]"
